Each molecule was assayed against human GPR40 receptor (Homo sapiens, UniProt O14842) (assay: IP1 accumulation measurements using the IPOne assay system). Conditions: 1321N1 cells stably expressing human GPR40 receptor; stimulated 1 h at 37° C.
Sequence of human GPR40 receptor (O14842 whole entry): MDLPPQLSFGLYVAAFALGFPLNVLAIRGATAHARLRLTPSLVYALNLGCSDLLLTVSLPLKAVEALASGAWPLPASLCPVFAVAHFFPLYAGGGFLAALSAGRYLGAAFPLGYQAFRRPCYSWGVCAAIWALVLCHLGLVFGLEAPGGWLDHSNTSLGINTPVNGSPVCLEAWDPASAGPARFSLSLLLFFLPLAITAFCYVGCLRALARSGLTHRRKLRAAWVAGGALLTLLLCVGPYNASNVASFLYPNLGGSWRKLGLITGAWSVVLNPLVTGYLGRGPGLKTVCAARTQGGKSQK
Format: cell-based
Protocol: IP1 accumulation measurements using the IPOne assay system—1321N1 cells stably expressing human GPR40 receptor (Euroscreen, Belgium) are seeded 24 h before the assay in white 384-well plates in culture medium containing 10% FCS, 1% Na-Pyruvate and 400 μg/mL G418. IP1 is assayed according to the manufacturer's description (Cisbio Bioassays, France). In brief, the assay is started by substitution of the culture medium by stimulation buffer (Hepes 10 mM, CaCl2) 1 mM, MgCl2 0.5 mM, KCl 4.2 mM, NaCl 146 mM, glucose 5.5 mM and LiCl 50 mM, pH 7.4). Cells are stimulated for 1 h at 37° C., 5% CO2 by addition of the compounds that are diluted in stimulation buffer containing LiCl. Assays are stopped by adding HTRF-conjugates (IP1-d2 and Anti-IP1 cryptate Tb) and lysis buffer, provided by the manufacturer. After an incubation time of 1 h at room temperature plates are measured using an EnVision™, Perkin Elmer. The obtained fluorescence ratios at 665/615 […] are then used to calculate the pEC50 values using Assay Explorer 3.3 Software (Accelrys, Inc.) by interpolation using an IP1 reference curve and subsequent sigmoidal curve fitting allowing for a variable hill slope.
For `Cc1cc(OCCC(C)(C)O)cc(C)c1-c1cc(COc2cnc([C@H]3C[C@@H]3C(=O)O)cn2)c(F)cc1F` [Example 1, (1 S,2S)-2-{5-[4,6-Difluoro-4′-(3-hydroxy-3-methyl-butoxy)-2′,6′-dimethyl-biphenyl-3-ylmethoxy]-pyrazin-2-yl}-cyclopropanecarboxylic acid], the EC50 was 6 nM.
Molecule `Cc1cc(-c2nnn(C)n2)cc(C)c1-c1cccc(COc2cnc([C@H]3C[C@@H]3C(=O)O)cn2)c1` [Example 2, (1 S,2S)-2-{5-[2′,6′-Dimethyl-4′-(2-methyl-2H-tetrazol-5-yl)-biphenyl-3-ylmethoxy]-pyrazin-2-yl}-cyclopropanecarboxylic acid] has an EC50 of 3 nM.
`O=C(O)[C@H]1C[C@@H]1c1cnc(OCc2cccc(-c3ccccc3C(F)(F)F)c2)cn1` [Example 3, (1 S,2S)-2-[5-(2′-Trifluoromethyl-biphenyl-3-ylmethoxy)-pyrazin-2-yl]-cyclopropanecarboxylic acid] was tested, and the EC50 was 24 nM.
For `COc1cc(C)c(-c2cccc(COc3cnc([C@H]4C[C@@H]4C(=O)O)cn3)c2)c(C)c1` [Example 4, (1 S,2S)-2-[5-(4′-Methoxy-2′,6′-dimethyl-biphenyl-3-ylmethoxy)-pyrazin-2-yl]-cyclopropanecarboxylic acid], the EC50 was 12 nM.
`O=C(O)[C@H]1C[C@@H]1c1cnc(OCc2cccc(-c3ccc(-c4cnco4)cc3)c2)cn1` [Example 5, (1 S,2S)-2-[5-(4′-Oxazol-5-yl-biphenyl-3-ylmethoxy)-pyrazin-2-yl]-cyclopropane-carboxylic acid] gave an EC50 of 67 nM.
Work on `Cc1cc(O[C@H]2CCOC2)cc(C)c1-c1cccc(COc2cnc([C@H]3C[C@@H]3C(=O)O)cn2)c1` [Example 6, (1 S,2S)-2-(5-{2′,6′-Dimethyl-4′-[(S)-(tetrahydro-furan-3-yl)oxy]-biphenyl-3-ylmethoxy}-pyrazin-2-yl)-cyclopropanecarboxylic acid] yielded an EC50 of 10 nM.
Work on `Cc1cc(OC2CCOCC2)cc(C)c1-c1cccc(COc2cnc([C@H]3C[C@@H]3C(=O)O)cn2)c1` [Example 7, (1 S,2S)-2-{5-[2′,6′-Dimethyl-4′-(tetrahydro-pyran-4-yloxy)-biphenyl-3-ylmethoxy]-pyrazin-2-yl}-cyclopropanecarboxylic acid] yielded an EC50 of 8 nM.
`Cc1cc(OCCC(C)(C)O)cc(C)c1-c1cccc(COc2cnc([C@H]3C[C@@H]3C(=O)O)cn2)c1` [Example 8, (1 S,2S)-2-{5-[4′-(3-Hydroxy-3-methyl-butoxy)-2′,6′-dimethyl-biphenyl-3-ylmethoxy]-pyrazin-2-yl}-cyclopropanecarboxylic acid] gave an EC50 of 7 nM.
`Cc1cc(-c2ccc(=O)n(C)c2)cc(C)c1-c1cccc(COc2cnc([C@H]3C[C@@H]3C(=O)O)cn2)c1` [Example 9, (1 S,2S)-2-{5-[2′,6′-Dimethyl-4′-(1-methyl-6-oxo-1,6-dihydro-pyridin-3-yl)-biphenyl-3-ylmethoxy]-pyrazin-2-yl}-cyclopropanecarboxylic acid] was tested, and the EC50 was 9 nM.
Molecule `Cc1cc(-c2cnccn2)cc(C)c1-c1cccc(COc2cnc([C@H]3C[C@@H]3C(=O)O)cn2)c1` [Example 10, (1 S,2S)-2-[5-(2′,6′-Dimethyl-4′-pyrazin-2-yl-biphenyl-3-ylmethoxy)-pyrazin-2-yl]-cyclopropanecarboxylic acid] has an EC50 of 13 nM.
`Cc1cc(-c2ccnn2C)cc(C)c1-c1cccc(COc2cnc([C@H]3C[C@@H]3C(=O)O)cn2)c1` [Example 11, (1 S,2S)-2-{5-[2′,6′-Dimethyl-4′-(2-methyl-2H-pyrazol-3-yl)-biphenyl-3-ylmethoxy]-pyrazin-2-yl}-cyclopropanecarboxylic acid] gave an EC50 of 6 nM.
For `Cc1cc(-c2nnn(CC(C)(C)O)n2)cc(C)c1-c1cccc(COc2cnc([C@H]3C[C@@H]3C(=O)O)cn2)c1` [Example 12, (1 S,2S)-2-(5-{4′-[2-(2-Hydroxy-2-methyl-propyl)-2H-tetrazol-5-yl]-2′,6′-dimethyl-biphenyl-3-ylmethoxy}-pyrazin-2-yl)-cyclopropanecarboxylic acid], the EC50 was 8 nM.
`CCc1cccc(CC)c1-c1cccc(COc2cnc([C@H]3C[C@@H]3C(=O)O)cn2)c1` [Example 13, (1 S,2S)-2-[5-(2′,6′-Diethyl-biphenyl-3-ylmethoxy)-pyrazin-2-yl]-cyclopropane-carboxylic acid] was tested, and the EC50 was 20 nM.
For `Cc1cc(OCC2CCCO2)cc(C)c1-c1ccc(F)c(COc2cnc([C@H]3C[C@@H]3C(=O)O)cn2)c1` (stereo partly drawn) [Example 14, (1 S,2S)-2-{5-[4-Fluoro-2′,6′-dimethyl-4′-(tetrahydro-furan-2-ylmethoxy)-biphenyl-3-ylmethoxy]-pyrazin-2-yl}-cyclopropanecarboxylic acid], the EC50 was 6 nM.
`O=C(O)[C@H]1C[C@@H]1c1cnc(OCc2cc(-c3c(Cl)cccc3Cl)ccc2F)cn1` [Example 15, (1 S,2S)-2-[5-(2′,6′-Dichloro-4-fluoro-biphenyl-3-ylmethoxy)-pyrazin-2-yl]-cyclopropanecarboxylic acid] showed an EC50 of 8 nM.
With `Cc1cnc(-c2cc(C)c(-c3ccc(F)c(COc4cnc([C@H]5C[C@@H]5C(=O)O)cn4)c3)c(C)c2)nc1` [Example 16, (1 S,2S)-2-{5-[4-Fluoro-2′,6′-dimethyl-4′-(5-methyl-pyrimidin-2-yl)-biphenyl-3-ylmethoxy]-pyrazin-2-yl}-cyclopropanecarboxylic acid] the EC50 was 3 nM.
`COc1cc(-c2cc(C)c(-c3ccc(F)c(COc4cnc([C@H]5C[C@@H]5C(=O)O)cn4)c3)c(C)c2)ccn1` [Example 17, (1 S,2S)-2-{5-[4-Fluoro-4′-(2-methoxy-pyridin-4-yl)-2′,6′-dimethyl-biphenyl-3-ylmethoxy]-pyrazin-2-yl}-cyclopropanecarboxylic acid] showed an EC50 of 7 nM.
`Cc1cc(OCCCS(C)(=O)=O)cc(C)c1-c1ccc(F)c(COc2cnc([C@H]3C[C@@H]3C(=O)O)cn2)c1` [Example 18, (1 S,2S)-2-{5-[4-Fluoro-4′-(3-methanesulfonyl-propoxy)-2′,6′-dimethyl-biphenyl-3-ylmethoxy]-pyrazin-2-yl}-cyclopropanecarboxylic acid] was tested, and the EC50 was 7 nM.
`Cc1cc(OCC2CCOCC2)cc(C)c1-c1ccc(F)c(COc2cnc([C@H]3C[C@@H]3C(=O)O)cn2)c1` [Example 19, (1 S,2S)-2-{5-[4-Fluoro-2′,6′-dimethyl-4′-(tetrahydro-pyran-4-ylmethoxy)-biphenyl-3-ylmethoxy]-pyrazin-2-yl}-cyclopropanecarboxylic acid] showed an EC50 of 6 nM.
`CC(C)c1ccccc1-c1ccc(F)c(COc2cnc([C@H]3C[C@@H]3C(=O)O)cn2)c1` [Example 20, (1 S,2S)-2-[5-(4-Fluoro-2′-isopropyl-biphenyl-3-ylmethoxy)-pyrazin-2-yl]-cyclopropanecarboxylic acid] showed an EC50 of 35 nM.
`CC(C)(O)CCOc1ccc(-c2cc(COc3cnc([C@H]4C[C@@H]4C(=O)O)cn3)ccc2C(F)(F)F)cc1` [Example 21, (1 S,2S)-2-{5-[4′-(3-Hydroxy-3-methyl-butoxy)-6-trifluoromethyl-biphenyl-3-ylmethoxy]-pyrazin-2-yl}-cyclopropanecarboxylic acid] gave an EC50 of 3 nM.
`Cc1nnc(-c2ccc(-c3cc(COc4cnc([C@H]5C[C@@H]5C(=O)O)cn4)ccc3C(F)(F)F)cc2)o1` [Example 22, (1 S,2S)-2-{5-[4′-(5-Methyl-[1,3,4]oxadiazol-2-yl)-6-trifluoromethyl-biphenyl-3-ylmethoxy]-pyrazin-2-yl}-cyclopropanecarboxylic acid] gave an EC50 of 4 nM.
